{"source": "patent US20230149410A1", "about": "“TREATMENT OF CONDITIONS ASSOCIATED WITH THYROID HORMONE” (priority 2020, published 2023)", "origin": "cited, not measured here", "conditions": "profound hypothyroidism after birth, treated immediately after birth", "note": "Read-outs that look alike come from different tables or passages of the source.", "data": [{"smiles": "N[C@@H](Cc1cc(I)c(Oc2cc(I)c(O)c(I)c2)c(I)c1)C(=O)O", "note": "[levothyroxine]", "values": [{"measurement": "thyroid status by thyroid hormone testing in plasma or serum (blood)", "value": "rendered chemically euthyroid"}, {"measurement": "thyroid status by thyroid hormone testing in plasma or serum (blood)", "setting": "listed as T4", "value": "became chemically euthyroid"}]}]}
